These results are taken from US6831081B2, “4-Oxo-4,7-dihydrothieno[2,3-b]pyridine-5-carboxamides as antiviral agents” (Pharmacia & Upjohn, priority 2002, dated 2004).

pIC50: −log10 of the molar value.

Series [1] concerns the target T1, HCMV polymerase (Human cytomegalovirus, UniProt P08546).
T1 construct: made in house; host or cells: SF-9 insect cells (recombinant baculovirus)
The series is described as follows: HCMV polymerase scintillation proximity assay. In kind it is biochemical. On the procedure: (§1) The HCMV polymerase assay is performed using a scintillation proximity assay (SPA) as described in several references, such as N.D. Cook, et al., Pharmaceutical Manufacturing International, pages 49-53 (1992), K Takeuchi, Laboratory Practice, September issue (1992); U.S. Pat. No. 4,568,649 (1986); which are incorporated by reference herein. Reactions are performed in 96-well plates. The assay is conducted in 100 μl volume with 5.4 mM HEPES (pH 7.5), 11.7 mM KCl, 4.5 mM MgCl2, 0.36 mg/ml BSA, and 90 nM ^3H-dTTP. Assays are run with and without CHAPS, (3-[(3-Cholamidopropyl)-dimethylammonio]-1-propane-sulfonate) at a final concentration of 2 mM. HCMV polymerase is diluted in enzyme dilution buffer containing 50% glycerol, 250 mM NaCl, 10 mM HEPES (pH 7.5), […] BSA, and 0.01% sodium azide. The HCMV polymerase, which is expressed in recombinant baculovirus-infected SF-9 cells and purified according to literature procedures, is added at 10% (or 10 μl) of the final reaction volume, i.e., 100 μl. Compounds are diluted in 50% DMSO and 10 μl are added to each well. Control wells contain an equivalent concentration of DMSO. Unless noted otherwise, reactions are initiated via the addition of 6 nM biotinylated poly(dA)-oligo(dT) template/primer to reaction mixtures containing the enzyme, substrate, and compounds of interest. Plates are incubated in a 25° C. or 37° C. H2O bath and terminated via the addition of 40 μl/reaction of 0.5 M EDTA (pH 8) per well. Reactions are terminated within the time-frame during which substrate incorporation is linear and varied depending upon the enzyme and conditions used, Le., 30 min. for HCMV polymerase. Ten (10) μl of streptavidin-SPA beads (20 mg/ml in PBS/10% glycerol) are added following termination of the reaction. Plates are incubated 10 min. at 37° C., then equilibrated to room temperature, and counted on a Packard Topcount. Linear regressions are performed and IC50's are calculated using computer software.
(§2) A modified version of the above HCMV polymerase assay is performed as described above, but with the following changes: Compounds are diluted in 100% DMSO until final dilution into assay buffer. In the previous assay, compounds are diluted in 50% DMSO. 4.5 mM Dithiothreitol (DTT) is added to the polymerase buffer.
(§3) All results are listed as Polymerase IC50(μM) values. In Table 1, the term “n.d.” refers to activity data not determined.

Series [2] has as its target HSV polymerase (Human herpesvirus 1, UniProt P04293). The experiment in a line: HSV polymerase assay (SPA). In kind it is biochemical. The method, then:
[Worded in the source for another target; used here, by the source, with some conditions changed.] as §1, §2, §3

The target of series [3] is VZV polymerase (Varicella-zoster virus, UniProt P09252). The series is described as follows: VZV polymerase assay (SPA). In kind it is biochemical. On the procedure: [Worded in the source for another target; used here, by the source, with some conditions changed.] as §1, with “Control wells contain an equivalent concentration of DMSO. Unless noted otherwise, reactions are initiated via the addition of 6 nM biotinylated poly(dA)-oligo(dT) template/primer to reaction mixtures containing the enzyme, substrate, and compounds of interest. Plates are incubated in a 25° C. or 37° C. H2O bath and terminated via the addition of 40 μl/reaction of 0.5 M EDTA (pH 8) per well. Reactions are terminated within the time-frame during which substrate incorporation is linear and varied depending upon the enzyme and conditions used, Le., 30 min. for HCMV polymerase. Ten (10) μl of streptavidin-SPA beads (20 mg/ml in PBS/10% glycerol) are added following termination of the reaction.” left out, “software. […]” for “software.”
as §3

Sequence of HSV polymerase (P04293 whole entry): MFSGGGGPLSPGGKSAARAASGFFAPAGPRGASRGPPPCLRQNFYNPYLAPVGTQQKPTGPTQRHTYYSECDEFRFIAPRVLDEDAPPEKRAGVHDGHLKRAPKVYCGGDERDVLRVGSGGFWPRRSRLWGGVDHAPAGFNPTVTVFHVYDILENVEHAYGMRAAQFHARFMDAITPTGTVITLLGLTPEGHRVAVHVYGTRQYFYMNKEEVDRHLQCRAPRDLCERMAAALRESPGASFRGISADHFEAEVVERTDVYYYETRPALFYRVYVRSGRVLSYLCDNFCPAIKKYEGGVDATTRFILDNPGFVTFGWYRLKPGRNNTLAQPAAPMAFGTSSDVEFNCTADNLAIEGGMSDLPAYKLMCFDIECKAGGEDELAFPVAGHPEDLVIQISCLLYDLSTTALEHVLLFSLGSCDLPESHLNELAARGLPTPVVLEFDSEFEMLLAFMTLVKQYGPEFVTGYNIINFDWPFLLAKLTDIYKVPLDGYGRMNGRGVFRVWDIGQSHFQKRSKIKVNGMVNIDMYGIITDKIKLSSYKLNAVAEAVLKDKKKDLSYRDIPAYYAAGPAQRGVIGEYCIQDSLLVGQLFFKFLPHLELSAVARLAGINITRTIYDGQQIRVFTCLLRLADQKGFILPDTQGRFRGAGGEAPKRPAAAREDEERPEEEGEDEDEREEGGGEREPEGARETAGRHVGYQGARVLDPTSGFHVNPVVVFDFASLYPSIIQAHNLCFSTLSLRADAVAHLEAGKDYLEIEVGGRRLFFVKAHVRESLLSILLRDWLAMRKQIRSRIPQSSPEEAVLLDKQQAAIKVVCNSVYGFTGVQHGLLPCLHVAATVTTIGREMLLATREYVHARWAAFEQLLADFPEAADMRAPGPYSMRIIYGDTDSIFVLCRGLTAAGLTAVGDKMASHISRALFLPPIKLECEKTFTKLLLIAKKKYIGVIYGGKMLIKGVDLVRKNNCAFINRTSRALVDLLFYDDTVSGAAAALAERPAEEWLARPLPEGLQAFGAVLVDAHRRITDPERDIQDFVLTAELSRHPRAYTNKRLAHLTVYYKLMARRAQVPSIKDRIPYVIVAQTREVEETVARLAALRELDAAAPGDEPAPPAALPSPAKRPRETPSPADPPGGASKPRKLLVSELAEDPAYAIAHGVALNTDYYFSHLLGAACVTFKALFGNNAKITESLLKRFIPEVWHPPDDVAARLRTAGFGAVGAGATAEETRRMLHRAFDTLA
T1 sequence (P08546 whole entry): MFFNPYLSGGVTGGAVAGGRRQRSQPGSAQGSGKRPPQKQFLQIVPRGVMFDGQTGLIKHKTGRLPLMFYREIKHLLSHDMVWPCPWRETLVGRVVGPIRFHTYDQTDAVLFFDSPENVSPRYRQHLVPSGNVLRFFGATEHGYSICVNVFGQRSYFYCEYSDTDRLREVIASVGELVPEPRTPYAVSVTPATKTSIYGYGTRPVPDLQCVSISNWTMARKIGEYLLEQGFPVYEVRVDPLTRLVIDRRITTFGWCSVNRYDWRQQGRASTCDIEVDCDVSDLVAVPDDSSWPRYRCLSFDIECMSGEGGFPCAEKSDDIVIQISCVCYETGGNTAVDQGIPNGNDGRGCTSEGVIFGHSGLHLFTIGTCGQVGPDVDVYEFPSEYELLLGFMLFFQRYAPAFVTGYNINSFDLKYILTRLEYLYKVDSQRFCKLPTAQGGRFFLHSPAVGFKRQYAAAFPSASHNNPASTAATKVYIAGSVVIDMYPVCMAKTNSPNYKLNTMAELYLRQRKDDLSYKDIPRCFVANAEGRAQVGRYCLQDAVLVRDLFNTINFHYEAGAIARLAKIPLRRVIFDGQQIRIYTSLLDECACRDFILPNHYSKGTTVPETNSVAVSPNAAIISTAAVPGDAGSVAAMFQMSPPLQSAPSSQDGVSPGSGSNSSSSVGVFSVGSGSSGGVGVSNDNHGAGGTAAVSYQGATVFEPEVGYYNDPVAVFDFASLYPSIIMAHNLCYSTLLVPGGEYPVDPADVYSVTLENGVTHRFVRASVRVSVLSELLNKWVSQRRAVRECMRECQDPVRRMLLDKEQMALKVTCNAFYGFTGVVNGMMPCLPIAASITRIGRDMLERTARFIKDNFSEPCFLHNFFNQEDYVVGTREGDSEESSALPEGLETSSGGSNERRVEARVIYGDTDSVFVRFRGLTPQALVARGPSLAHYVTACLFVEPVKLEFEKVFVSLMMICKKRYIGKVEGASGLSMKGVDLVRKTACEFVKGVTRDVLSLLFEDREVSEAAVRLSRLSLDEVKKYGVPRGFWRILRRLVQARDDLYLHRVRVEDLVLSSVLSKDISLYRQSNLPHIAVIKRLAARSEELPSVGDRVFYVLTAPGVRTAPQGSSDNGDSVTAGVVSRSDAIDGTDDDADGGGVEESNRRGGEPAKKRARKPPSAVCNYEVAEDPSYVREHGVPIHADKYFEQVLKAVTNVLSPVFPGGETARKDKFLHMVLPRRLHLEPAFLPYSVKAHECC
Sequence of VZV polymerase (P09252 whole entry): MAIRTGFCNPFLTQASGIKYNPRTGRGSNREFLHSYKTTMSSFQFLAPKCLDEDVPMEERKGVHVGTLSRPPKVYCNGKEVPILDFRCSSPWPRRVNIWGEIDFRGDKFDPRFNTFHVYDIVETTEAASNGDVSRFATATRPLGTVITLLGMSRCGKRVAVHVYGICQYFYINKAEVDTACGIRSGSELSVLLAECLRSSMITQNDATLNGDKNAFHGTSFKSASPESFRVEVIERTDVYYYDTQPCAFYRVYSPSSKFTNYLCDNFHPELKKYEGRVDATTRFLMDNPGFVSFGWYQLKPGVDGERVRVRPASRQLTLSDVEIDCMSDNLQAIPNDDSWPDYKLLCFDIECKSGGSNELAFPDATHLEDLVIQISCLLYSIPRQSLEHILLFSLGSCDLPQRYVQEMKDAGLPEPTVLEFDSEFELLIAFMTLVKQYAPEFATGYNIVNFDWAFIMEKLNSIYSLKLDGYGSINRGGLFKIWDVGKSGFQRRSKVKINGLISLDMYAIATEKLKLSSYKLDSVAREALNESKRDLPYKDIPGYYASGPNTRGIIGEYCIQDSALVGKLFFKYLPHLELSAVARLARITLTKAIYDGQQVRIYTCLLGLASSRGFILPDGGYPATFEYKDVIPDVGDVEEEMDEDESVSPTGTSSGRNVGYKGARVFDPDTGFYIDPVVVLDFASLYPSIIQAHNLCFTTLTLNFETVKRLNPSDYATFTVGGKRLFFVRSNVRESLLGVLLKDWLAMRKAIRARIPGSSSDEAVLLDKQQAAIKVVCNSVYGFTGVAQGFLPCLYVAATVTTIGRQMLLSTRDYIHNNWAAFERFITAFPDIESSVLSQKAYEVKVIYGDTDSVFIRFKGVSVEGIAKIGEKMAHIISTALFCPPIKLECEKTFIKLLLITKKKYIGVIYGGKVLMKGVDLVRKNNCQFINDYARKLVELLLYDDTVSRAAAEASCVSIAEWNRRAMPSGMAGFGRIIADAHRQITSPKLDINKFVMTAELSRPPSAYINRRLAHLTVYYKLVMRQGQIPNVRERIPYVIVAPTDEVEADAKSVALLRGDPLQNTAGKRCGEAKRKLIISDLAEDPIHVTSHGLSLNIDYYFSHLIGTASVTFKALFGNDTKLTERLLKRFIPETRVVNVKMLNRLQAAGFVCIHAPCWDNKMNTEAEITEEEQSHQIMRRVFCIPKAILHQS

By pIC50 is commonly meant the negative decadic logarithm of the IC50, by convention in mol/L. Higher therefore signals a small IC50. Broadly, the melting point is the temperature, or range, at which the solid turns liquid. In turn, `Cn1cc(C(=O)NCc2ccc(Cl)cc2)c(=O)c2cc(CN3CCC[C@@H]3[C@@H](O)c3ccccc3)sc21` (relative stereo) [Example 2, N-(4-Chlorobenzyl)-2-(((2R*2)-(S*)-hydroxy(phenyl)methyl)pyrrolidin-1-yl)methyl)-7-methyl-4-oxo-4,7-dihydrothieno[2,3-b]pyridine-5-carboxamide] showed a melting point of 158 to 162 °C. The molecule further showed a pIC50 in series [1] of 6.92. In series [2], this molecule gave a pIC50 of 6.14. The pIC50 in series [3] was 6.68.
As for `Cn1cc(C(=O)NCc2ccc(Cl)cc2)c(=O)c2cc(CN3CCOC[C@@H]3Cc3ccccc3)sc21` [Example 1, 2-(((3S)-3-Benzylmorpholin-4-yl)methyl)-N-(4-chlorobenzyl)-7-methyl-4-oxo-4,7-dihydrothieno[2,3-b]pyridine-5-carboxamide], the negative-log IC50 (pIC50) in series [1] is 6.35; in series [2], 6.00; in series [3], 6.38.
The molecule `Cn1cc(C(=O)NCc2ccc(Cl)cc2)c(=O)c2cc(CN3CCOC[C@@H]3[C@H](O)c3ccccc3)sc21` [Example 14, N-(4-Chlorobenzyl)-2-(((3R)-3-((R)-hydroxy(phenyl)methyl)morpholin-4-yl)-methyl)-7-methyl-4-oxo-4,7-dihydrothieno[2,3-b]pyridine-5-carboxamide] registered a melting point of 171 to 172 °C. The pIC50 in series [1] was 5.90. This molecule gave a pIC50 in series [2] of 5.53.
In turn, `Cn1cc(C(=O)NCc2ccc(Cl)cc2)c(=O)c2cc(CN3CCOC[C@@H]3[C@@H](O)c3ccccc3)sc21` [Example 15, N-(4-Chlorobenzyl)-2-(((3R)-3-((S)hydroxy(phenyl)methyl)morpholin-4-yl)-methyl)-7-methyl-4-oxo-4,7-dihydrothieno[2,3-b]pyridine-5-carboxamide] showed a melting point of 129 to 134 °C. The pIC50 in series [1] was 7.62. Also, the pIC50 in series [2] is 7.66.
